Results on 3 molecules are retold here after patent US20260174875A1 (Novo Nordisk A/S, priority 2023, published 2026).

Holding throughout (assay type): cell-based
Assay [1] has as its target T1, human GLP-1 receptor (hGLP-1R) (Homo sapiens, UniProt P43220).
T1 construct: expressed in transfected cells
The experiment in a line: GLP-1 receptor assay, method B (CRE-luciferase reporter, BHK cells, 384-well). (In general: Reporter assays use an easily measured gene product as a stand-in for the process of interest.)

Assay [2] addresses T2, human GIP receptor (hGIPR) (Homo sapiens, UniProt P48546).
T2 construct: expressed in transfected cells
T2 sequence (P48546 22-466): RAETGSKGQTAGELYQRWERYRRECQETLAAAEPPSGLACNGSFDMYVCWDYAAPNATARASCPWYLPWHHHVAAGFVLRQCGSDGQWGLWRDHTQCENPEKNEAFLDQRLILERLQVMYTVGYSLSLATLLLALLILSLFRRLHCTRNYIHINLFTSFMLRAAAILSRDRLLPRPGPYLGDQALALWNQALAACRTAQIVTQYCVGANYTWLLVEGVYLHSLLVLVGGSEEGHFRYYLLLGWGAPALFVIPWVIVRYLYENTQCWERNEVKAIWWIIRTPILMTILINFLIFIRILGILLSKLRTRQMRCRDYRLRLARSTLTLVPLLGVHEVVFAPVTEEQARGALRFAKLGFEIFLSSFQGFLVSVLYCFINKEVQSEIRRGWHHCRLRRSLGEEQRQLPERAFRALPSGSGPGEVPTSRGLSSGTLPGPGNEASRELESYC
Briefly: GIP receptor assay, method B (CRE-luciferase reporter, BHK cells, 384-well).

Assay [3] concerns the target T3, human amylin receptor (hAMYR3) (Homo sapiens, UniProt O60896+P30988).
T3 construct: host or cells: BHK cells (Hollex-1 line expressing hCTR(a) and CRE-Luc), further transfected with human RAMP3
Briefly: Amylin receptor assay, method B (CRE-luciferase reporter, BHK cells). How it is done: To assess how the activation of the receptors is potentially influenced by the presence of human serum albumin (HSA), the in vitro assays were performed in the absence of HSA and presence of 1% (w/v) HSA.
It is thus possible to measure hAMYR3 activity using a CRE-luciferase reporter gene introduced into Baby Hamster Kidney (BHK) cells co-expressing the hAMYR3.
The cell line was further transfected with human receptor modifying protein 3 (RAMP3) using standard methods.
After centrifugation, the cell pellet was resuspended and diluted to approximately 2.5-4.0×10^6 (2.5E+6 to 4.0E+6) cells/mL in Recovery™ Cell Culture Freezing Medium (Gibco, 12648-010). Cells were aliquoted and stored at −180° C. until use.
The assay buffer consisted of DMEM without phenol red (Gibco, 11880-028) supplemented with 1× GlutaMAX (Gibco, 35050-038), 10 mM HEPES (Gibco, 15630-056) and 1% (w/v) ovalbumin (Sigma, A5503) either with or without 0.1% (v/v) Pluronic F-68 (Gibco, 24040-032) and either with or without HSA (Sigma, A9511).
To perform the assay, hAMYR3 BHK Cre-Luc cells were thawed, washed once in PBS (Gibco 14190-094) and seeded in 40 μL growth medium in a white 384-well culture plate (PerkinElmer/Revvity, 6007688) at a cell density of 4.0×10^3 (4.0E+3) cells/well the day before the experiment. The plate was incubated over night at 37° C. in 5% CO2. […] Serial dilutions were then mixed in a new 96-well plate with equal volume (1:1:1 ratio) of assay buffer and either assay buffer without or with 3% HSA (Sigma, A-9511). Twenty microliters of the solution mix were transferred to the cells which previously were washed once with PBS (Gibco 14190-094). After a short centrifugation, the assay plates were incubated for 3 hours at 37° C. in 5% CO2 and let to equilibrated at room temperature for 10 minutes before the addition of 30 μL steadylite Plus™ PerkinElmer/Revvity, 6066759) per well. Plates were sealed and incubated at room temperature with gentle shaking for 30 minutes while protected from light. Luminescence was detected on a luminescence plate reader e.g., a Synergy 2 (BioTek).

The mark [4] stands for this setting: hGLP-1R Potency, 1% HSA, EC50, methods B, in the presence of 1% HSA.
The mark [5] stands for this setting: hGIPR Potency, 1% HSA, EC50, methods B, in the presence of 1% HSA.
The mark [6] stands for this setting: method B, absence of HSA, read-out: hGIPR Potency, no HSA, EC50.
Where [7] appears, read: hAMYR3 Potency, 1% HSA, EC50, methods B, in the presence of 1% HSA.
Setting [8] is: method B, absence of HSA, read-out: hAMYR3 Potency, no HSA, EC50.
[9] abbreviates: method B, absence of HSA, read-out: hGLP-1R Potency, no HSA, EC50.

Broadly, the EC50 is the concentration at which the effect is half-maximal.

The structures appear in SMILES notation. Read-outs that look alike come from different tables or passages of the source.

T3 sequence (P30988 25-474): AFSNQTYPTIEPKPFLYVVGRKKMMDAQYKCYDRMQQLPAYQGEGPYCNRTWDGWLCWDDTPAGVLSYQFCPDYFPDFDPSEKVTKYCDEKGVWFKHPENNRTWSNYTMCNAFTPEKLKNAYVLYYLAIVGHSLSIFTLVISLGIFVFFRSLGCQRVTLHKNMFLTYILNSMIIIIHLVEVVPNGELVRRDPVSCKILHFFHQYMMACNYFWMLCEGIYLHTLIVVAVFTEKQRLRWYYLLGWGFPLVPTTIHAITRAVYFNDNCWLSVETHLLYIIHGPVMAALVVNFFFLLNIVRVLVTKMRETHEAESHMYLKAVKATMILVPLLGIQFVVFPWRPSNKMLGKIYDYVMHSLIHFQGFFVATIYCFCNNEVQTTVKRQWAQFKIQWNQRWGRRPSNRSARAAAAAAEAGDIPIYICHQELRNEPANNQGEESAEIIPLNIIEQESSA
T3 sequence (O60896 24-148): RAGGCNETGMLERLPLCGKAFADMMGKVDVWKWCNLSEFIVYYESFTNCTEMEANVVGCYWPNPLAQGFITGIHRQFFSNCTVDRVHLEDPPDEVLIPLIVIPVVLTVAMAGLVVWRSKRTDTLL
T1 sequence (P43220 24-463): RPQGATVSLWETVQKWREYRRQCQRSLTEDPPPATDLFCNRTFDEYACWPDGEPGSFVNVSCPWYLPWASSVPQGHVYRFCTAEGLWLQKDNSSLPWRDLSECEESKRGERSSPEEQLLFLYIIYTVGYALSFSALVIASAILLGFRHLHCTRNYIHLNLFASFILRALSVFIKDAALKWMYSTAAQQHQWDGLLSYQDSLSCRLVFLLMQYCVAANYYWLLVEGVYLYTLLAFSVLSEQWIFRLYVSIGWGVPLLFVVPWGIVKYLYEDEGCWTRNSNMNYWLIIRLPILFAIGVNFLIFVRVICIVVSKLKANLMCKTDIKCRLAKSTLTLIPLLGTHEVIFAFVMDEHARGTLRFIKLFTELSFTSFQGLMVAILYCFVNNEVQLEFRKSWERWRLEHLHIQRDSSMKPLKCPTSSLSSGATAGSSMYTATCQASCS

Take `CC[C@H](C)[C@H](NC(=O)[C@H](CCC(=O)O)NC(=O)[C@H](CCC(=O)O)NC(=O)[C@H](CC(C)C)NC(=O)[C@H](CC(C)C)NC(=O)[C@@H](NC(=O)[C@H](CO)NC(=O)[C@H](Cc1ccc(O)cc1)NC(=O)[C@H](CC(=O)O)NC(=O)[C@H](CO)NC(=O)[C@@H](NC(=O)[C@H](Cc1ccccc1)NC(=O)[C@@H](NC(=O)CNC(=O)[C@H](CCC(=O)O)NC(=O)C(C)(C)NC(=O)[C@@H](N)Cc1ccc(O)cc1)[C@@H](C)O)[C@@H](C)O)[C@@H](C)CC)C(=O)N[C@@H](C)C(=O)N[C@@H](C)C(=O)N[C@@H](CCCNC(=N)N)C(=O)N[C@@H](CCC(=O)O)C(=O)N[C@@H](Cc1ccccc1)C(=O)N[C@H](C(=O)N[C@@H](CCC(=O)O)C(=O)N[C@@H](Cc1c[nH]c2ccccc12)C(=O)N[C@@H](CC(C)C)C(=O)N[C@@H](CC(C)C)C(=O)N[C@@H](C)C(=O)NCC(=O)NCC(=O)N1CCC[C@H]1C(=O)N[C@@H](CO)C(=O)N[C@@H](CO)C(=O)NCC(=O)N[C@@H](C)C(=O)NCC(=O)N[C@@H](CCC(N)=O)C(=O)N[C@@H](C)C(=O)N1CCC[C@H]1C(=O)NCC(=O)N[C@@H](CCC(N)=O)C(=O)N[C@@H](C)C(=O)N1CCC[C@H]1C(=O)NCC(=O)N[C@@H](C)C(=O)N[C@@H](CO)C(=O)N[C@@H](Cc1c[nH]cn1)C(=O)N[C@@H](CC(C)C)C(=O)N[C@@H](CO)C(=O)N[C@H](C(=O)N[C@@H](C)C(=O)N[C@@H](CCC(N)=O)C(=O)N[C@H](C(=O)N[C@@H](CCC(N)=O)C(=O)N[C@@H](CCCNC(=N)N)C(=O)N[C@@H](CC(C)C)C(=O)N[C@@H](CO)C(=O)N[C@@H](C)C(=O)N[C@@H](CCC(=O)O)C(=O)N[C@@H](CC(C)C)C(=O)N[C@@H](Cc1c[nH]cn1)C(=O)N[C@@H](CCCCNC(=O)COCCOCCNC(=O)COCCOCCNC(=O)CC[C@H](NC(=O)CCCCCCCCCCCCCCCCCCC(=O)O)C(=O)O)C(=O)N[C@@H](CC(C)C)C(=O)N[C@@H](C)C(=O)N[C@H](C(=O)N[C@@H](CC(C)C)C(=O)N1CCC[C@H]1C(=O)N[C@@H](CCCNC(=N)N)C(=O)N[C@H](C(=O)N[C@@H](CCC(=O)O)C(=O)N[C@H](C(=O)NCC(=O)N[C@@H](CO)C(=O)NCC(=O)N[C@@H](CO)C(=O)N1CCC[C@H]1C(N)=O)[C@@H](C)O)[C@@H](C)O)[C@@H](C)O)[C@@H](C)O)[C@@H](C)O)[C@@H](C)CC` [Compound 120]: the EC50 in assay [1] (setting [4]) worked out at 129 pM; in assay [2] (setting [5]) it was 20 pM; in assay [2] (setting [6]) it was 2.9 pM; in assay [3] (setting [7]), 774 pM; in assay [3] (setting [8]) it was 6.31 pM.
In the case of `CC[C@H](C)[C@H](NC(=O)[C@H](CCC(=O)O)NC(=O)[C@H](CCC(=O)O)NC(=O)[C@H](CC(C)C)NC(=O)[C@H](CC(C)C)NC(=O)[C@@H](NC(=O)[C@H](CO)NC(=O)[C@H](Cc1ccc(O)cc1)NC(=O)[C@H](CC(=O)O)NC(=O)[C@H](CO)NC(=O)[C@@H](NC(=O)[C@H](Cc1ccccc1)NC(=O)[C@@H](NC(=O)CNC(=O)[C@H](CCC(=O)O)NC(=O)C(C)(C)NC(=O)[C@@H](N)Cc1ccc(O)cc1)[C@@H](C)O)[C@@H](C)O)[C@@H](C)CC)C(=O)N[C@@H](C)C(=O)N[C@@H](C)C(=O)N[C@@H](CCCNC(=N)N)C(=O)N[C@@H](CCC(=O)O)C(=O)N[C@@H](Cc1ccccc1)C(=O)N[C@H](C(=O)N[C@@H](CCC(=O)O)C(=O)N[C@@H](Cc1c[nH]c2ccccc12)C(=O)N[C@@H](CC(C)C)C(=O)N[C@@H](CC(C)C)C(=O)N[C@@H](C)C(=O)NCC(=O)NCC(=O)N1CCC[C@H]1C(=O)N[C@@H](CO)C(=O)N[C@@H](CO)C(=O)N[C@@H](CCC(=O)O)C(=O)N[C@@H](C)C(=O)NCC(=O)N[C@@H](C)C(=O)N[C@@H](CO)C(=O)N[C@@H](CCC(N)=O)C(=O)N[C@@H](CC(C)C)C(=O)N[C@@H](CO)C(=O)N[C@H](C(=O)N[C@@H](C)C(=O)N[C@@H](CCC(N)=O)C(=O)N[C@H](C(=O)N[C@@H](CCC(N)=O)C(=O)N[C@@H](CCCNC(=N)N)C(=O)N[C@@H](CC(C)C)C(=O)N[C@@H](CO)C(=O)N[C@@H](C)C(=O)N[C@@H](CCC(=O)O)C(=O)N[C@@H](CC(C)C)C(=O)N[C@@H](Cc1c[nH]cn1)C(=O)N[C@@H](CCCCNC(=O)COCCOCCNC(=O)COCCOCCNC(=O)CC[C@H](NC(=O)CCCCCCCCCCCCCCCCCCC(=O)O)C(=O)O)C(=O)N[C@@H](CC(C)C)C(=O)N[C@@H](C)C(=O)N[C@H](C(=O)N[C@@H](CC(C)C)C(=O)N1CCC[C@H]1C(=O)N[C@@H](CCCNC(=N)N)C(=O)N[C@H](C(=O)N[C@@H](CCC(=O)O)C(=O)N[C@H](C(=O)NCC(=O)N[C@@H](CO)C(=O)NCC(=O)N[C@@H](CO)C(=O)N1CCC[C@H]1C(N)=O)[C@@H](C)O)[C@@H](C)O)[C@@H](C)O)[C@@H](C)O)[C@@H](C)O)[C@@H](C)CC` [Compound 181], the values for the half-maximal effective concentration (EC50) in assay [1] (setting [9]), in assay [2] (setting [6]) and in assay [3] (setting [8]) were 28.8 pM, 3.25 pM and 8.46 pM, respectively.
`CC[C@H](C)[C@H](NC(=O)[C@H](CCC(=O)O)NC(=O)[C@H](CCC(=O)O)NC(=O)[C@H](CC(C)C)NC(=O)[C@H](CC(C)C)NC(=O)[C@@H](NC(=O)[C@H](CO)NC(=O)[C@H](Cc1ccc(O)cc1)NC(=O)[C@H](CC(=O)O)NC(=O)[C@H](CO)NC(=O)[C@@H](NC(=O)[C@H](Cc1ccccc1)NC(=O)[C@@H](NC(=O)CNC(=O)[C@H](CCC(=O)O)NC(=O)C(C)(C)NC(=O)[C@@H](N)Cc1ccc(O)cc1)[C@@H](C)O)[C@@H](C)O)[C@@H](C)CC)C(=O)N[C@@H](C)C(=O)N[C@@H](C)C(=O)N[C@@H](CCCNC(=N)N)C(=O)N[C@@H](CCC(=O)O)C(=O)N[C@@H](Cc1ccccc1)C(=O)N[C@H](C(=O)N[C@@H](CCC(=O)O)C(=O)N[C@@H](Cc1c[nH]c2ccccc12)C(=O)N[C@@H](CC(C)C)C(=O)N[C@@H](CC(C)C)C(=O)N[C@@H](C)C(=O)NCC(=O)NCC(=O)N1CCC[C@H]1C(=O)N[C@@H](CO)C(=O)N[C@@H](CO)C(=O)NCC(=O)N[C@@H](C)C(=O)NCC(=O)N[C@@H](CCC(N)=O)C(=O)N[C@@H](C)C(=O)N1CCC[C@H]1C(=O)NCC(=O)N[C@@H](CCC(=O)O)C(=O)N[C@@H](C)C(=O)N1CCC[C@H]1C(=O)NCC(=O)N[C@@H](C)C(=O)N[C@@H](CO)C(=O)N[C@@H](Cc1c[nH]cn1)C(=O)N[C@@H](CC(C)C)C(=O)N[C@@H](CO)C(=O)N[C@H](C(=O)N[C@@H](C)C(=O)N[C@@H](CCC(N)=O)C(=O)N[C@H](C(=O)N[C@@H](CCC(N)=O)C(=O)N[C@@H](CCCNC(=N)N)C(=O)N[C@@H](CC(C)C)C(=O)N[C@@H](CO)C(=O)N[C@@H](C)C(=O)N[C@@H](CCC(=O)O)C(=O)N[C@@H](CC(C)C)C(=O)N[C@@H](Cc1c[nH]cn1)C(=O)N[C@@H](CCCCNC(=O)COCCOCCNC(=O)COCCOCCNC(=O)CC[C@H](NC(=O)CCCCCCCCCCCCCCCCCCC(=O)O)C(=O)O)C(=O)N[C@@H](CC(C)C)C(=O)N[C@@H](C)C(=O)N[C@H](C(=O)N[C@@H](CC(C)C)C(=O)N1CCC[C@H]1C(=O)N[C@@H](CCCNC(=N)N)C(=O)N[C@H](C(=O)N[C@@H](CCC(=O)O)C(=O)N[C@H](C(=O)NCC(=O)N[C@@H](CO)C(=O)NCC(=O)N[C@@H](CO)C(=O)N1CCC[C@H]1C(N)=O)[C@@H](C)O)[C@@H](C)O)[C@@H](C)O)[C@@H](C)O)[C@@H](C)O)[C@@H](C)CC` [Compound 152]: the EC50 in assay [1] (setting [4]) was 67.4 pM; in assay [1] (setting [9]) it was 22.4 pM; in assay [2] (setting [5]), 11.4 pM; in assay [2] (setting [6]) it was 3.83 pM; in assay [3] (setting [7]) it was 914 pM; in assay [3] (setting [8]), 8.5 pM.
